# Results reported in patent publication US20090325959A1 (priority 2008, published 2009).
# Read-outs that look alike come from different tables or passages of the source.
# Key:
# [1] = target: T1, ROCK1 (Homo sapiens, UniProt Q13464); test: Rho kinase inhibition assay (IMAP fluorescence polarization), ROCK1; assay type: biochemical;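 further: kinase reaction run 60 min at room temperature, then phosphorylated substrate captured on IMAP beads for 30 min, with fluorescence polarization read in mP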
# T1 construct: purchased Upstate/Chemicon 14-601
# Protocol: (§2) Following the pre-incubation, 10 μM ATP was added to initiate the reaction. After 60 minutes at room temperature, Molecular Devices IMAP™ binding solution was added to bind phosphorylated substrate. After 30 minutes of incubation in the presence of the IMAP™ beads, the fluorescence polarization was read and the ratio was reported as mP. IC50 values for compounds and EC50 values for ATP were calculated using the Prism software from Graphpad.
# [2] = target: T2, ROCK2 (Homo sapiens, UniProt O75116); test: Rho kinase inhibition assay (IMAP fluorescence polarization), ROCK2; assay type: biochemical;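 further: kinase reaction started with 10 µM ATP and run 60 min at room temperature, then phosphorylated substrate captured on IMAP beads for 30 min and fluorescence polarization read in mP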
# T2 construct: purchased Upstate/Chemicon 14-451
# Protocol: as §2
# [3] = tested on: human neutrophils; test: Human neutrophil chemotaxis induced by fMLP (modified Boyden chamber); assay type: cell-based; conditions: Neutrophil, 1 h, 1 μM fMLP challenge, one hour, read-out: Chemotaxis Avg. IC50
# How it was run: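 Neutrophils from healthy volunteers' blood, isolated by Ficoll-paque centrifugation, dextran sedimentation and hypotonic red-cell lysis. Migration measured in a modified Boyden chamber (3 μm polycarbonate membrane) toward 1 μM fMLP for 1 h at 37° C., 5% CO2. Compounds tested in dose response.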
# [4] = Rat oral pharmacokinetics (plasma); assay type: in vivo; conditions: 20-30 μmol/kg
# Protocol: Plasma (EDTA K2 anticoagulant) was collected from male, cannulated, CD Sprague Dawley rats to determine the pharmacokinetics of formulations containing compound inhibitors of Rho kinase. Each animal was dosed orally with a 4 ml/kg solution or suspension of each test compound in 10 mM acetate buffered saline, pH 4.5 at a final concentration range of 20-30 μmol/kg. Blood was collected at 0.25, 0.5, 1, 2, 4, 6, 8, and 24 hours. Plasma samples were assayed for the concentration of the test compound using an on-line, solid phase extraction LC/MS/MS analysis system.
# Samples were analyzed on a QSTAR Elite, hybrid quadrupole time-of-flight mass spectrometer (Applied Biosystems, Framingham, Mass.) coupled with a Symbiosis Pharma integrated, on-line SPE-HPLC system (Spark Holland Inc., Plainsboro, N.J.). Analyst QS 2.0 software was used for instrument control, data acquisition and processing. […] Mobile Phase A consisted of 0.1% ammonium hydroxide in water and Mobile Phase B consisted of 0.1% formic acid in acetonitrile. Pharmacokinetic analyses were performed using WinNonlin software version 5.2 (Pharsight Corporation, Mountain View, Calif.).
# As determined from the plasma concentration versus time curves, the time to peak and peak exposure are represented by the values Tmax and Cmax, respectively. The AUC values (nM*hr) shown were calculated as the areas under the plasma concentration versus time curves from time zero through the time of the last observable value and represent the total exposure of the compound over the course of the study. Half-life values or the amount of time required for the plasma levels of the compound to decline to half the initial value are represented as t½.
# [5] = Compound concentrations in lungs of ova-sensitized, ova-challenged mice post IP, PO and IT administration; assay type: in vivo; conditions: male, Balb/c, mouse, lung, BD model, PO 15 μmol/kg, time point 3 h, n = 9 or 10, read-out: Lung concentration (plasma corrected)
# Protocol: Additionally, compound concentrations were determined in the plasma and lungs of male, ovalbumin-sensitized, Balb/c mice from a murine model of asthma. Test compounds were formulated in water or 1% polysorbate 80 and dosed at 15 μmol/kg for intraperitoneal (IP) or oral (PO) administration or formulated for intratracheal (IT) administration and dosed at 5 μmol/kg, which directly targets the lungs. Following completion of the in vivo study, mice were euthanized and blood and plasma collected approximately 2.5-3 hours post administration of test compound for bronchodialator (BD) studies and 24 hours post administration for anti-inflamatory (AI) studies. Lungs were homogenized in Matrix A lysing tubes using a FastPrep 24 tissue and cell homogenizer (MP Biomedicals, Solon, Ohio). Both plasma samples and lung extracts were assayed for compound concentrations using an on-line, solid phase extraction LC/MS/MS system. The actual lung tissue concentrations of each compound in mouse were extrapolated from the lung and plasma concentrations, data are shown in Table 11. The results of a set of experiments using unsensitized mice and collecting only plasma 15 minutes post administration of test compounds are shown in Table 12.
# [6] = tested on: A-10 rat thoracic aorta cells; test: PDGF-stimulated smooth muscle cell proliferation assay (BrdU incorporation); assay type: cell-based; conditions: A-10 cells, 10 ng/mL PDGF, BrdU incorporation, percent of total challenge-stimulated proliferation;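 further: cells kept in serum-free medium, BrdU allowed to incorporate for 24 h, then incorporated label detected fluorometrically with an anti-BrdU antibody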
# Protocol: Effects on cell proliferation were measured using a bromodeoxyuridine (BrdU) incorporation assay. […] Serum free media containing 01% BSA was added to the cells. 24 hours later the media was removed and replaced with warmed serum free media. […] Proliferation was then monitored using the BrdU Cell Proliferation Assay, HTS (Calbiochem cat. #t HTS01). BrdU was allowed to incorporate into cells for 24 hours prior to the addition of fixative/denaturing solution and the fluorometric detection of incorporated BrdU using a BrdU antibody as per manufacturer's directions. Data are reported as a percent of the PDGF-stimulated BrdU incorporation.
# [7] = target: T3, Akt3 human enzyme (Homo sapiens, UniProt Q9Y243); test: Akt3 inhibition assay (IMAP FP); assay type: biochemical;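 further: kinase reaction run 60 min at room temperature after 30 µM ATP start, phosphorylated substrate captured on IMAP beads and read as fluorescence polarization (mP)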
# T3 construct: purchased Upstate Chemicon 14-502
# Protocol: Inhibition of Akt3 and p70S6K activity was determined using the IMAP™ FP Progressive Binding Kit (Molecular Devices product number R8127). […] Following the pre-incubation, 30 μM ATP was added to initiate the reaction. After 60 minutes at RT, Molecular Devices IMAP™ binding solution was added to bind phosphorylated substrate. After 30 minutes of incubation in the presence of the IMAP™ beads the fluorescence polarization was read and the ratio was reported as mP. IC50 results were calculated using the Prism software from Graphpad. The Ki values were determined according to the following formula: Ki=IC50/(1+([ATP Challenge]/EC50 ATP)).
# [8] = target: T4, p70S6K human enzyme (Homo sapiens, UniProt P23443, T412E); test: p70S6K inhibition assay (IMAP FP); assay type: biochemical;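 further: kinase reaction run at room temperature, phosphorylated substrate captured on IMAP beads and read as fluorescence polarization in mP, IC50 then converted to Ki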
# T4 construct: purchased Upstate Chemicon 14-486
# [9] = target: T5, ERK1 (Homo sapiens, UniProt P27361); test: Kinase panel screen (KinaseProfiler), ERK1; assay type: biochemical; conditions: 10 μM ATP
# T5 construct: purchased Upstate, Millipore Bioscience Division (KinaseProfiler service)
# Protocol: (§1) Compounds of Formulae I and II were examined for activity against a selected panel of kinases using the KinaseProfiler™ enzyme profiling services (Upstate, Millipore Bioscience Division). Percent kinase activity at 10 μM and 1 μM test compound and 10 μM ATP was determined against 40 wild-type recombinant human kinases according to Upstate's standard protocol: ASK1, BTK, CSK, c-RAF, GCK, GSK3β, IKKα, IKKβ, IRAK1, IRAK4, JNK1α1, JNK2α2, JNK3, ERK1, ERK2, MAPKAP-K2, MAPKAP-K3, MEK1, MKK4, MKK6, MKK7β, Mnk2, MSK1, PAK3, PDK1, PRAK, ROCK1, Rsk2, SAPK2a, SAPK2b, SAPK3, SAPK4, SRPK1, SRPK2, Syk, TAK1, TBK1, PI3-Kβ, PI3-Kγ, PI3-Kδ.
# [10] = target: T6, ERK2 (Homo sapiens, UniProt P28482); test: Kinase panel screen (KinaseProfiler), ERK2; assay type: biochemical
# T6 construct: purchased Upstate, Millipore Bioscience Division (KinaseProfiler service)
# Protocol: as §1
# [11] = target: T7, Mnk2 (Homo sapiens, UniProt Q9HBH9); test: Kinase panel screen (KinaseProfiler), Mnk2; assay type: biochemical; conditions: 10 μM ATP; for activity at 1 µM: 1 μM test compound, read-out: Mnk2 Percent inhibition, 1 μM; for activity at 10 µM: 10 μM test compound, read-out: Mnk2 Percent inhibition, 10 μM
# T7 construct: purchased Upstate, Millipore Bioscience Division (KinaseProfiler service)
# Protocol: as §1
# [12] = target: T8, IRAK4 (Homo sapiens, UniProt Q9NWZ3); test: Kinase panel screen (KinaseProfiler), IRAK4; assay type: biochemical; conditions: 10 μM ATP; for activity at 1 µM: 1 μM test compound, read-out: IRAK4 Percent inhibition, 1 μM; for activity at 10 µM: 10 μM test compound, read-out: IRAK4 Percent inhibition, 10 μM
# T8 construct: purchased Upstate, Millipore Bioscience Division (KinaseProfiler service)
# T8 sequence (Q9NWZ3 1-460): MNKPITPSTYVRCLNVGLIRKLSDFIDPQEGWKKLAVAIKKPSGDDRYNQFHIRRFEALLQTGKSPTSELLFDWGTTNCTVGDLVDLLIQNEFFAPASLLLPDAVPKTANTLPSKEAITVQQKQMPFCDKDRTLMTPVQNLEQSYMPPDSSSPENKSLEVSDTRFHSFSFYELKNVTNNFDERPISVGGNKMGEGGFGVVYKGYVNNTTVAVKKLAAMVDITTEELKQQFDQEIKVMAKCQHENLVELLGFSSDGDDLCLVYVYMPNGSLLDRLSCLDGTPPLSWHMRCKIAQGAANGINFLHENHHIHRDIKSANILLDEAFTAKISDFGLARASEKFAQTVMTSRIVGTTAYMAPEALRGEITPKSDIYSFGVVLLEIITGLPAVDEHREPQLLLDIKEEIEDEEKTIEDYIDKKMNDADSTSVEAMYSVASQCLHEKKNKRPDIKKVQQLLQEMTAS
# Protocol: as §1
# [13] = target: T9, IRAK1 (Homo sapiens, UniProt P51617); test: Kinase panel screen (KinaseProfiler), IRAK1; assay type: biochemical; conditions: 10 μM ATP; for activity at 1 µM: 1 μM test compound, read-out: IRAK1 Percent inhibition, 1 μM; for activity at 10 µM: 10 μM test compound, read-out: IRAK1 Percent inhibition, 10 μM
# T9 construct: purchased Upstate, Millipore Bioscience Division (KinaseProfiler service)
# Protocol: as §1
# [14] = target: T10, GCK (Homo sapiens, UniProt Q12851); test: Kinase panel screen (KinaseProfiler), GCK; assay type: biochemical; conditions: for activity at 10 µM: 10 μM test compound, 10 μM ATP, read-out: GCK Percent inhibition, 10 μM
# T10 construct: purchased Upstate, Millipore Bioscience Division (KinaseProfiler service)
# T10 sequence (Q12851 1-820): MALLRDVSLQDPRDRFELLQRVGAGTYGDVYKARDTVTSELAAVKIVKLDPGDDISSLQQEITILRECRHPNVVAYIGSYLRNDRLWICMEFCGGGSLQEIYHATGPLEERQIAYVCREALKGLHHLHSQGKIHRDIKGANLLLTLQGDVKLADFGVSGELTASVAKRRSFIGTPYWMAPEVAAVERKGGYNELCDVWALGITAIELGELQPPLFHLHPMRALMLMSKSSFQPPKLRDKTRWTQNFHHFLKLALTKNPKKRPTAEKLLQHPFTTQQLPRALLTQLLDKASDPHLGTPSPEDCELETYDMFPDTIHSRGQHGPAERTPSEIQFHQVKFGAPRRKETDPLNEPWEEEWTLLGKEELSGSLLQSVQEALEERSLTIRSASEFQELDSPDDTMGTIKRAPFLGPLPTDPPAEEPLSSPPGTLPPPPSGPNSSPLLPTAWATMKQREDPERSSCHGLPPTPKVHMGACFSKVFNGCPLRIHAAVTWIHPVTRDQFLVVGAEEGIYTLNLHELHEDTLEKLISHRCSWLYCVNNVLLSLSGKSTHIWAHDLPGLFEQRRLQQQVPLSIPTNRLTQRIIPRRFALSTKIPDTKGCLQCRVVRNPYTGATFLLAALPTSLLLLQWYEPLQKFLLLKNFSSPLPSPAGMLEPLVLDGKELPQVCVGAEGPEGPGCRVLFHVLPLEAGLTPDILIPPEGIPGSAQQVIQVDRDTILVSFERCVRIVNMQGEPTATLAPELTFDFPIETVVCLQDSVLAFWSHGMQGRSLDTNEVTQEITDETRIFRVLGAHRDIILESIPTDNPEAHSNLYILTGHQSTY
# Protocol: as §1
# [15] = Compound plasma concentrations in unsensitized mice at 15 min post administration; assay type: in vivo; conditions: mouse, 15 μmol/kg; mean compound plasma concentration in mice at 15 minutes post oral administration; read-out: Mouse Oral PK
# [16] = tested on: ova-sensitized, ova-challenged mice; test: Prevention of airway hyperreactivity (Penh, methacholine) in mouse ovalbumin sensitization model; assay type: in vivo
# Protocol: The anti-inflammatory dosing paradigm consists of dosing the animals once a day starting on day 27 and finishing on either day 30 or 31 (1 hr prior to the aerosolized ovalbumin challenges on days 28 to 30) but not on day 32 when hyperreactivity evaluation occurs. […] Exposure to the methacholine doses consisted of a 3 minute period during which a nebulizer was aerosolizing the methacholine and an additional 3 minute period following the cessation of nebulization. […] Enhanced pause (Penh), a unitless index of airway hyperreactivity, is derived from the expiratory side of the respiratory waveform measured via the plethysmograph and is used as an indirect measure of airway resistance and hyperreactivity. […] Following the methacholine dose response, BALF was collected and all animals were anesthetized, bled and euthanized. […] The Penh value at each of the dose levels of methacholine represents the 6-minute average response. Change from baseline (CFB) in Penh was calculated at each methacholine dose and the area under the curve (AUC) for these CFB values was calculated using the trapezoidal rule. This same approach was applied for each mouse across multiple experiments. […] Data from equal experimental conditions across experiments performed on different days were pooled for statistical analysis and data reporting. […] A random intercept for each experiment was assumed to account for possible similarities of the results obtained from a given experiment (i.e., as a “blocking effect”). […] For FIG. 9, linear AUC values from compound treated mice were reported as a percent of linear AUC values from vehicle-treated ovalbumin-sensitized/ovalbumin-challenged (asthmatic) mice.
# [17] = 10 μM ATP, read-out: ROCK2 Ki, Avg
# [18] = 30 μM ATP, Ki=IC50/(1+([ATP Challenge]/EC50 ATP)), read-out: Akt3 Ki, Avg
# [19] = 30 μM ATP, Ki=IC50/(1+([ATP Challenge]/EC50 ATP)), read-out: p70S6K Ki, Avg
# [20] = average Ki, read-out: p70S6K Ki
# T1 sequence (Q13464 17-535 limits assumed): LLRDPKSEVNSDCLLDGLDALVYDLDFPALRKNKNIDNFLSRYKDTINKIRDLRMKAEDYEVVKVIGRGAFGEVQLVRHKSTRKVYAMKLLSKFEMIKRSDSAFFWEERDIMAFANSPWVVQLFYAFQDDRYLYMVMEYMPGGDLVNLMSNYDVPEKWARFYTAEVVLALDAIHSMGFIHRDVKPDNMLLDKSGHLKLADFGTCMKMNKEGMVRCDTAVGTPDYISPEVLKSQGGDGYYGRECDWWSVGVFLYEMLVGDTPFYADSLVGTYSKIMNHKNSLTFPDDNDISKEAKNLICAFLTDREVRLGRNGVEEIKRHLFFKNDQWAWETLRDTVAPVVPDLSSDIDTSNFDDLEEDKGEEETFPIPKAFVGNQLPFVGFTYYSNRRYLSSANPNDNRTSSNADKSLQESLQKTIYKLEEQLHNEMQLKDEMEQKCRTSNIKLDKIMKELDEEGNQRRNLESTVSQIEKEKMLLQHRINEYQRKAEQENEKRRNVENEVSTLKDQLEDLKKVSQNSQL
# T3 sequence (Q9Y243 whole entry): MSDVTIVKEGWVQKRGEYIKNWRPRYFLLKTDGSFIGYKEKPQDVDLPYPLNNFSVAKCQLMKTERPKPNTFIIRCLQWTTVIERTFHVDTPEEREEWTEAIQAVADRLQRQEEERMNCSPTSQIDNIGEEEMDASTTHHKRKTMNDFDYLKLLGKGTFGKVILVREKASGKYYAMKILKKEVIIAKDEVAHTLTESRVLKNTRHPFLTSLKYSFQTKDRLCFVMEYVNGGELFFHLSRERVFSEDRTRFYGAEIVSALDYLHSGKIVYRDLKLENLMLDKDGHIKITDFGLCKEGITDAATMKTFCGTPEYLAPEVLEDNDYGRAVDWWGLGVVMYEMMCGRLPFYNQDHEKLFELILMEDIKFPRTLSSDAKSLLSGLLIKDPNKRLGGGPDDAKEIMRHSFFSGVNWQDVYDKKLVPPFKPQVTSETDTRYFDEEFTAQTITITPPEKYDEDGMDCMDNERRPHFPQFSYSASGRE
# T7 sequence (Q9HBH9 whole entry): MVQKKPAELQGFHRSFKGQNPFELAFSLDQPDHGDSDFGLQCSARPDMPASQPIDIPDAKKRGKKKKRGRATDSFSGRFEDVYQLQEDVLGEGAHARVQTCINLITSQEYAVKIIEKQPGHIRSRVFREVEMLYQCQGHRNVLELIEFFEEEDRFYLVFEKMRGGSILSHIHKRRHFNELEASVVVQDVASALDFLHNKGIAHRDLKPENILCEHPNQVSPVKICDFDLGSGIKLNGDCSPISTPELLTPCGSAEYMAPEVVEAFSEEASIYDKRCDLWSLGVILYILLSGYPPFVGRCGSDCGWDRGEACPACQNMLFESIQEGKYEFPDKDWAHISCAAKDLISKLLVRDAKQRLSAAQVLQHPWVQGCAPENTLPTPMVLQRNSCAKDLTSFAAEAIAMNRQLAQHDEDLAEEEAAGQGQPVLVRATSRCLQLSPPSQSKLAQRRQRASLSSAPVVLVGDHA
# T6 sequence (P28482 whole entry): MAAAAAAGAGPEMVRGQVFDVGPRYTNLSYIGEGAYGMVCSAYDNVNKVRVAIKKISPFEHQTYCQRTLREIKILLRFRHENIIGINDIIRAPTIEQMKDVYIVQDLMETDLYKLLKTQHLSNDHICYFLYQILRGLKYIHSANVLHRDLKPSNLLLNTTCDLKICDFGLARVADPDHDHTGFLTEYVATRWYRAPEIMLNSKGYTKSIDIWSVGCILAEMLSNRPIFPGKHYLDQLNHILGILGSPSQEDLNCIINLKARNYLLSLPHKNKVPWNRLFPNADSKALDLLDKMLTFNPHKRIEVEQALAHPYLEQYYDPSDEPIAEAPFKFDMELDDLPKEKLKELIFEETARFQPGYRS
# T9 sequence (P51617 whole entry): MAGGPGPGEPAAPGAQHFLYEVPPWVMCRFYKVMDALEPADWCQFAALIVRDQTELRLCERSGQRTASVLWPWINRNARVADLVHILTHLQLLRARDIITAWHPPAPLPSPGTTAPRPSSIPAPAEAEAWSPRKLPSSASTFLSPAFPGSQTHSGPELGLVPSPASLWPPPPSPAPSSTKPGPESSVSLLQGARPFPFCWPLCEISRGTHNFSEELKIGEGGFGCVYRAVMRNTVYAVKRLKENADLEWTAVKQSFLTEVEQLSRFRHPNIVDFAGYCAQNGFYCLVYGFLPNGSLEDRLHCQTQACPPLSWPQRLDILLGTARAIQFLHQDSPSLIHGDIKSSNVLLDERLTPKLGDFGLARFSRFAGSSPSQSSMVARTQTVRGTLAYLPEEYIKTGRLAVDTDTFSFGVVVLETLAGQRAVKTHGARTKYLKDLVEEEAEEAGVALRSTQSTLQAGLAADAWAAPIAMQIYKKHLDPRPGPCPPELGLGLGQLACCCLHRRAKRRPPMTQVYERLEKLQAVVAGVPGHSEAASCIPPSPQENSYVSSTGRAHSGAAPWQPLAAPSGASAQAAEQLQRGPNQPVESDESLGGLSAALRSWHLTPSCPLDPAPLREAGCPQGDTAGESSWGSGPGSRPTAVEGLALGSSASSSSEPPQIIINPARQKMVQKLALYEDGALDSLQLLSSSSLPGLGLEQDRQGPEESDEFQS
# T4 sequence (P23443 1-421 T412E limits assumed): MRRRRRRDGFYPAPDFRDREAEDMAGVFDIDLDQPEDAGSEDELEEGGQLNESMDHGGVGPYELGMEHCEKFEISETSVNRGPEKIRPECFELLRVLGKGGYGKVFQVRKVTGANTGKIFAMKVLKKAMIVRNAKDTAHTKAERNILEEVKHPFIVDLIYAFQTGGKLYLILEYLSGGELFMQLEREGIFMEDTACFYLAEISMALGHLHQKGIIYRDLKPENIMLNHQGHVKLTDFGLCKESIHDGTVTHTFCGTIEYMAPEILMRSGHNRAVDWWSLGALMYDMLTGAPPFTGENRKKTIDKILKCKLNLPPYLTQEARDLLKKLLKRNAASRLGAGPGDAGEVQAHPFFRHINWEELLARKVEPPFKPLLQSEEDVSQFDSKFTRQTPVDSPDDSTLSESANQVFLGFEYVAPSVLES
# T2 sequence (O75116 11-552 limits assumed): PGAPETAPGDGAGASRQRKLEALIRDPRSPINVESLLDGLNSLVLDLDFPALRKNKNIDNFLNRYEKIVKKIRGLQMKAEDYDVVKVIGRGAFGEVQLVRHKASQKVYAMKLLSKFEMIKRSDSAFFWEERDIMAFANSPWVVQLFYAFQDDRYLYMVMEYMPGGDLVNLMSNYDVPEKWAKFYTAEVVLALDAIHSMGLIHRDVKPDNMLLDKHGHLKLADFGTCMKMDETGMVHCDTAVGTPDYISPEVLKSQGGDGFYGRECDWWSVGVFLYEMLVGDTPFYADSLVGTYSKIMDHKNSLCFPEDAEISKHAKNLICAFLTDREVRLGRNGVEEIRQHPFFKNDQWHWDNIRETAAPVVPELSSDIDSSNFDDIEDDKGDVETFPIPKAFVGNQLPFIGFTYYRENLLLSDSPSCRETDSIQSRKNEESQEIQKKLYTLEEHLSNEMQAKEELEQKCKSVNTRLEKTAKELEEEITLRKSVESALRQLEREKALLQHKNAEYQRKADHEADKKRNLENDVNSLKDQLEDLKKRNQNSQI
# T5 sequence (P27361 whole entry): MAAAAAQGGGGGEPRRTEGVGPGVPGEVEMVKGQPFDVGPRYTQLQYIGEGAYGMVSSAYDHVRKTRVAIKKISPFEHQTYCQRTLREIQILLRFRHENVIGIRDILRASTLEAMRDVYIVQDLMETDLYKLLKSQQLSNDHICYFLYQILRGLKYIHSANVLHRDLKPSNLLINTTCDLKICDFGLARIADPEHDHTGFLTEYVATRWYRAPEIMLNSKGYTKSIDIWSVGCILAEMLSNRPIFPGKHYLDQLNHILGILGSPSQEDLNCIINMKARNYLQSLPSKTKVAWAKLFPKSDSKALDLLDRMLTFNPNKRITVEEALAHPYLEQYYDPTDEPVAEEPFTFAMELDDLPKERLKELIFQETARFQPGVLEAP
structure (smiles),measurement,setting,value
"OCCOc1cccc(CN2CCC[C@@H](Nc3ccc4[nH]ncc4c3)C2)c1 [Compound 1.092, (R)-2-(3-((3-(1H-indazol-5-ylamino)piperidin-1-yl)methyl)phenoxy)ethanol]",Ki,"[1]; Avg, 10 μM ATP",191 nM
same,Ki,[2]; [17],28.4 nM
same,IC50,[3],2750 nM
same,Vz_F,[4]; mean n = 3,19.0 L/kg
same,AUC(0-t),"[4]; male, CD Sprague Dawley, mean n = 3",1.85 µM·h
same,Cmax,"[4]; male, CD Sprague Dawley, mean n = 3, read-out: Cmax",2100 nM
same,Tmax,"[4]; male, CD Sprague Dawley, mean n = 3, read-out: Tmax",15 min
same,half-life,"[4]; male, CD Sprague Dawley, mean n = 3, read-out: t½ (converted)",104 min
same,concentration at 3 h,[5],152 nM
"NC(=O)Cn1ccc2cc(CN3CCC[C@@H](Nc4ccc5[nH]ncc5c4)C3)ccc21 [Compound 1.162, (R)-2-(5-((3-(1H-indazol-5-ylamino)piperidin-1-yl)methyl)-1H-indol-1-yl)acetamide]",Ki,"[1]; Avg, 10 μM ATP",15.2 nM
same,Ki,[1]; average Ki,15.2 nM
same,Ki,[2]; [17],2.8 nM
same,Ki,"[2]; average Ki, read-out: ROCK2 Ki",2.8 nM
same,Percent of PDGF Induced Proliferation at 1 μM Avg,[6]; 1 μM test compound,55.6%
same,Percent of PDGF Induced Proliferation at 10 μM Avg,[6]; 10 μM test compound,42.5%
same,Ki,[7]; [18],92 nM
same,Ki,"[7]; average Ki, read-out: Akt3 Ki",92 nM
same,Ki,[8]; [19],387 nM
same,Ki,[8]; [20],387 nM
same,activity at 1 µM,"[9]; 1 μM test compound, read-out: ERK1 Percent inhibition, 1 μM",84%
same,activity at 10 µM,"[9]; 10 μM test compound, read-out: ERK1 Percent inhibition, 10 μM",50%
same,"ERK2 Percent inhibition, 1 μM",[10],89%
same,"ERK2 Percent inhibition, 10 μM",[10],60%
same,activity at 1 µM,[11],111%
same,activity at 10 µM,[11],65%
same,activity at 1 µM,[12],105%
same,activity at 10 µM,[12],88%
same,activity at 1 µM,[13],100%
same,activity at 10 µM,[13],97%
same,"GCK Percent inhibition, 1 μM",[14],93%
same,activity at 10 µM,[14],75%
same,concentration at 15 min,[15],76 nM
"Cc1ccc(CN2CCC[C@@H](Nc3ccc4[nH]ncc4c3)C2)cc1OCCO [Compound 1.161, (R)-2-(5-((3-(1H-indazol-5-ylamino)piperidin-1-yl)methyl)-2-methylphenoxy)ethanol]",Ki,"[1]; Avg, 10 μM ATP",9.9 nM
same,Ki,[1]; average Ki,9.9 nM
same,Ki,[2]; [17],2.5 nM
same,Ki,"[2]; average Ki, read-out: ROCK2 Ki",2.5 nM
same,log10AUC (Penh),"[16]; 0.5 μmol/kg/intratracheal, days 27 to 31",2.0405
same,airway hyperreactivity,[16]; intratracheal once a day during days 27 to 31,prevention of airway hyperreactivity
same,Ki,[7]; [18],63.5 nM
same,Ki,"[7]; average Ki, read-out: Akt3 Ki",63.5 nM
same,Ki,[8]; [19],129 nM
same,Ki,[8]; [20],129 nM
same,"ERK2 Percent inhibition, 1 μM",[10],104%
same,"ERK2 Percent inhibition, 10 μM",[10],92%
same,activity at 1 µM,[11],108%
same,activity at 10 µM,[11],106%
same,activity at 1 µM,[12],96%
same,activity at 10 µM,[12],109%
same,activity at 1 µM,[13],106%
same,activity at 10 µM,[13],99%
same,"GCK Percent inhibition, 1 μM",[14],96%
same,activity at 10 µM,[14],91%
